# Measured values reported in article PMC11087525 (Scientific Reports, 2024).
# Values joined by “and” are separate entries in the source; they are usually repeats but may differ in a detail not shown here. Equal values may be shown once. Read-outs that look alike come from different tables or passages of the source.
# Legend:
# [1] = tested on: pericytes; experiment: In-vitro drug uptake by human brain pericytes
# [2] = tested on: pericytes; conditions: human, 24 h, 1000 ng/mL
# [3] = tested on: Human brain primary astrocytes; experiment: In-vitro drug uptake by human brain primary astrocytes
# [4] = tested on: human neurons
# [5] = cited from earlier work
# [6] = cited from earlier work; remark: listed apart in the source
# [7] = in vivo; conditions: male, Sprague-Dawley, rat, Median (IQR), rats
# [8] = tested on: SARS-CoV-2 USA_WAI/2020 isolate; conditions: cited from earlier work; for plasma EC90Adjusted concentration: adjusted for plasma protein binding
# [9] = in vivo; conditions: male, Sprague-Dawley, rat; for Tmax: Average Tmax
# [10] = tested on: SARS-CoV-2 USA_WAI/2020 isolate
# Source text: Therefore, the goal for the CSF was set to achieve the same exposure conditions as for plasma.
# [11] = cited from earlier work; remark: listed apart in the source
# [12] = design: method as in earlier work; conditions: cited from earlier work
# [13] = cited from earlier work; remark: listed apart in the source
# [14] = rats
# [15] = tested on: human neurons; experiment: In-vitro drug uptake by human neurons; conditions: for uptake of NMR by neurons (mean ± SD): 24-h incubation
# [16] = RTV alone, 1000 ng/mL, 24-h incubation
# [17] = in the presence or absence of RTV
# [18] = rats, oral 30 mg/kg NMR + 10 mg/kg RTV twice daily, 5 days
# [19] = rats, oral NMR/RTV twice daily, 5 days
structure (smiles),measurement,setting,value
"CC(C)c1nc(CN(C)C(=O)N[C@H](C(=O)N[C@@H](Cc2ccccc2)C[C@H](O)[C@H](Cc2ccccc2)NC(=O)OCc2cncs2)C(C)C)cs1 [RTV, ritonavir]",RTV uptake in pericytes (mean ± SD),[1]; [16],202.6 ng/mL
same,uptake of RTV by pericytes (uptake/administered),[2],20.2%
same,RTV uptake in astrocytes (mean ± SD),[3]; [16],419.7 ng/mL
same,neuronal entry of RTV,[4],moderate
"CC(C)(C)[C@H](NC(=O)C(F)(F)F)C(=O)N1C[C@H]2[C@@H]([C@H]1C(=O)N[C@H](C#N)C[C@@H]1CCNC1=O)C2(C)C [NMR, nirmatrelvir]",uptake of NMR by pericytes,[1]; [17],< 2%
same,"difference in NMR uptake, NMR alone or with RTV",[1]; pericytes,No significant differences
same,passive apparent permeability (Papp),[5],1.76 ×10⁻⁶ cm/s
same,lipophilicity coefficient (LogP),[6],1.68
same,"Cmax_0-5 days Plasma, Median (IQR)",all rats,2240 (1860–4030) ng/mL
same,"%CSF Concentrations ≥ 3xEC90Un_adjusted, Median (IQR)","all rats with CSF, 3xEC90 271.5 ng/mL unadjusted for protein binding",16 (0 -20.5) % and 16%
same,"Cmax_0-5 days Plasma, Geometric mean (Geometric SD factor)","excluding rat 7, calculated to compare to clinical data",2480 ng/mL
same,"CSF Cmax, median",rats,410 ng/mL
same,"% Penetration by Cmax CSF/Plasma, Median (IQR)",rats with CSF sampled,18.11%
same,"Cmax_0-5 days CSF, Median (IQR)",rats with CSF sampled,410 (200–880) ng/mL
same,"CL (NMR clearance), median from final model",[18],0.23 L/h
same,"Ka, median from final model",[18],0.51 h⁻¹
same,"K23 (rate constant to CSF from central compartment), median",[19],0.05 h⁻¹
same,"Vc (volume central compartment), median",[19],1.05 L
same,"Vcsf (volume cerebrospinal fluid compartment), median",[19],3.46 L
same,Kp,[7]; AR Brain,0.15
same,Kp,[7]; AR Kidney,1.71
same,Kp,[7]; AR Liver,2.71
same,Kp,[7]; AR Lung,0.89
same,Kp,[7]; AR PBMC,0.998
same,"difference in NMR uptake, NMR alone or with RTV",[3]; astrocytes,No significant differences
same,uptake of NMR by astrocytes,[3]; [17],< 2%
same,plasma EC90Adjusted concentration,[8]; bronchial epithelial cells infected with USA_WAI/2020 isolate,0.292 µg/mL
same,plasma EC90Adjusted concentration,[8],585 nM
same,EC90Un_adjusted,[8]; unadjusted for protein binding,0.0905 µg/mL
same,EC90Un_adjusted for CSF,[8]; unadjusted for protein binding,0.0905 µg/mL
same,Cmax,[9],2480 ng/mL
same,Kp,"[9]; % Penetration by AUC CSF/Plasma, Median (IQR), rats with CSF sampled",0.152
same,Kp,"[9]; % Penetration by Cmax CSF/Plasma, Median (IQR), rats with CSF sampled",0.181
same,k el,"[9]; po, 30 mg/kg",6.67e-05 s⁻¹
same,AUC,"[9]; po, 30 mg/kg, AUC0-endoftreatment CSF, Median (IQR), rats with CSF sampled",17600 ng·h/mL
same,AUC,"[9]; po, 30 mg/kg, AUC0-endoftreatment Plasma, Median (IQR), all rats",114000 ng·h/mL
same,AUC,"[9]; po, 30 mg/kg, AUC0-endoftreatment Plasma, Median (IQR), excluding rat 7",128000 ng·h/mL
same,AUC,"[9]; po, 30 mg/kg, AUCdaily_average CSF, Median (IQR), rats with CSF sampled",3520 ng·h/mL
same,AUC,"[9]; po, 30 mg/kg, AUCdaily_average Plasma, Geometric mean (Geometric SD factor), excluding rat 7, calculated to compare to clinical data",20200 ng·h/mL
same,AUC,"[9]; po, 30 mg/kg, AUCdaily_average Plasma, Median (IQR), all rats",22800 ng·h/mL
same,AUC,"[9]; po, 30 mg/kg, AUCdaily_average Plasma, Median (IQR), excluding rat 7",25600 ng·h/mL
same,Tmax,"[9]; po, 30 mg/kg, Mean (SD), all rats, calculated to compare to literature values",1.84 h
same,Tmax,"[9]; po, 30 mg/kg, Median (IQR), all rats",1.68 h
same,half-life,"[9]; po, 30 mg/kg, Half-life, Median (IQR), all rats, NMR in the presence of RTV",2.55 h
same,Kp,"[9]; po, NMR CSF concentrations as % of those in plasma, ratio of Cmax or AUC, oral NMR/RTV twice daily for five days",0.15 to 0.18
same,3xEC90 PD value for CSF,[10],271.5 ng/mL
same,3xEC90 PD value for plasma and tissue,[10],876 ng/mL
same,3xEC90 plasma protein adjusted in plasma,[10],0.876 mg/L
same,3xEC90 unadjusted in CSF,[10],0.2715 mg/L
same,NMR half-life in other oral rat PK studies,"[11]; 10 mg/kg oral, rat",4 h
same,F literature values estimated in rats for NMR,[11],34–50%
same,"Tmax in other rodent models, mean",[11],1.5 h
same,protein bound,[12],69%
same,participants with NMR trough concentrations ≥ 3 × EC90,"[13]; EPIC-HR, FDA review",95%
same,NMR Ka reported by others,[13],0.55 h⁻¹
same,half-life for NMR in the presence of RTV in humans,[13],6.05 h
same,healthy human geometric mean AUC0-12 h,[13]; healthy volunteers,23010 ng·h/mL
same,healthy human geometric mean Cmax,[13]; healthy volunteers,2210 ng/mL
same,"Brain NMR concentration, Median (IQR)",[14],23.83 (10.94-46.85) ng/g
same,"Heart NMR concentration, Median (IQR)",[14],61.72 (24.44-111.5) ng/g
same,"Kidney NMR concentration, Median (IQR)",[14],97.84 (43.28-297.3) ng/g
same,"Liver NMR concentration, Median (IQR)",[14],110 (35.65-419.5) ng/g
same,"Lung NMR concentration, Median (IQR)",[14],67.86 (25.01-111.3) ng/g
same,"PBMC NMR concentration, Median (IQR)",[14],61.44 (31.7-345.2) ng/mL
same,brain NMR concentrations compared to 3xEC90,[14]; adjusted or unadjusted for protein binding,all < 3xEC90 regardless of adjustment for protein binding
same,uptake of NMR by neurons (mean ± SD),"[15]; NMR alone, 2200 ng/mL",34.7 ng/mL
same,uptake of NMR by neurons (mean ± SD),"[15]; in the presence of RTV (1000 ng/mL), NMR 2200 ng/mL",122.8 ± 7.8 ng/mL
same,maximum NMR uptake (uptake/administered),"[15]; neurons in the presence of RTV, 2200 ng/mL administered",5.5%
